Experimental data published in patent US20230293420A1, “COSMETIC OR DERMOPHARMACEUTICAL COMPOSITION, PEPTIDE AND USE IN THE REDUCTION AND ELIMINATION OF WRINKLES AND EXPRESSION LINES” (NANOCEUTICALS LTDA, priority 2022, published 2023).
Where a SMILES comes first, the peptide text is derived from it.

Columns and labels:
[1] = Appearance of solubilized sample in cell culture medium; format: physicochemical; settings: 1 mg/mL in cell culture medium
[2] = test system: myoblast cells; format: cell-based
[3] = test system: Balb/c 3T3 clone 31 cells; assay: In vitro study of neutral red cytotoxicity; format: cell-based; settings: 24 hours incubation
Description: Evaluate the in vitro cytotoxic potential of the Giovian peptide (SEQ ID No. 1) in culture of Balb/c 3T3 clone 31 cells.
In this study, Balb.c 3T3 clone 31 cells were used, obtained from the supplier Banco de Células do Rio de Janeiro, batch 001242, maintained in cultivation with DMEM (Dulbecco's Modified Eagle's Medium) with the addition of supplements, in an oven at 37° C. and 5% of CO2, and were manipulated inside the laminar flow hood. In passage 04 after thawing, the cells were distributed in 96-well plates maintained in culture under the same conditions described.
The solutions containing the control, positive control and sample groups were applied to the cell culture, 100 μL per well in quadruplicate for each group, followed by incubation in an oven at 37° C. and 5% CO2 for 24 hours. After washing, cell viability was analyzed with the neutral red indicator, 100 μL per well.
The results were evaluated using Microsoft Excel software. The control group was normalized to 100% and the percentage of cell viability in the sample and in the positive control was calculated in relation to the control. Samples are considered cytotoxic when they have 30% or more reduction in cell viability.

## CC[C@H](C)[C@H](NC(=O)[C@H](CC(C)C)NC(=O)[C@H](CCCCN)NC(=O)CNC(=O)[C@H](CC(C)C)NC(=O)[C@H](CCCCN)NC(=O)[C@H](CC(C)C)NC(=O)[C@H](Cc1c[nH]c2ccccc12)NC(=O)[C@H](Cc1ccccc1)NC(=O)[C@@H](NC(=O)[C@H](CCCCN)NC(=O)[C@H](CCCNC(=N)N)NC(=O)[C@H](Cc1ccccc1)NC(=O)[C@@H]1CCCN1C(=O)[C@@H](NC(=O)[C@H](Cc1ccccc1)NC(=O)CNC(=O)[C@@H]1CCCN1C(=O)[C@@H]1CCCN1C(=O)[C@@H](N)CCCNC(=N)N)[C@@H](C)O)[C@@H](C)CC)C(=O)N[C@@H](CC(=O)O)C(=O)N[C@@H](C)C(=O)N[C@@H](CC(C)C)C(N)=O [Giovian] (H-RPPGFTPFRKIFWLKLGKLIDAL-NH2)
[1]
  appearance of solubilized sample: fully solubilized
[2]
  cell relaxation (reduction of cell contractility, collagen disc volume): increase in cell relaxation
[3]
  concentrations at which the sample did not present cytotoxic effect (cytotoxic = 30% or more reduction in cell viability): lower than 0.0375 mg/ml
